The source of these data is patent US20040072865A1, “Aryl piperidine derivatives as inducers of ldl-receptor expression” (priority 2003, published 2004).

Like-named read-outs stand apart in the source and are kept apart here.

For one data set, the system named is LDL-r promoter. The data set is described as follows: LDL-r promoter luciferase reporter gene assay in stably transfected HepG2 cells. In kind it is cell-based, human. The following applies: read-out: In vitro (IC50). (In a reporter assay the amount or activity of a reporter protein is the signal.)
The next data set relates to fat-fed hamsters. The data set is described as follows: Oral administration to fat-fed hamsters, reduction in VLDL/LDL cholesterol and TG plasmatic levels. In kind it is in vivo, hamster. The following applies: for ED50: Mesocricetus auratus, 72 h, fat-fed hamsters, oral, once a day for 3 days, reductions in VLDL/LDL cholesterol and TG plasmatic levels, read-out: In vivo (ED50). How it is done:
The in vivo profile of the compounds is evaluated by oral administration of the compounds of the invention to fat-fed hamsters. Measurements of VLDL/LDL cholesterol and triglycerides upon treatment allow to determine the activity.
Compounds were prepared for oral administration by milling with 0.5% hydroxypropylmethylcellulose and 5% Tween 80. Hamsters were fed for 2 weeks with a diet containing 0.2% of cholesterol and 10% of coconut oil. Then compounds were administrated once a day for 3 days, from 20 to 0.2 mg/kg. Plasma lipid levels including total cholesterol, VLDL/LDL cholesterol, VLDL/LDL triglycerides and HDL-cholesterol were determinated after ultracentrifugation (density 1.063 g/ml to separate VLDL/LDL fraction and HDL fraction) using the Biomerieux erizymatic kit. Reductions in VLDL/LDL cholesterol and TG plasmatic levels were calculated taking solvant treated animals as control and ED50 of each compound was determined.

The melting point is the temperature, or range, at which the solid turns liquid. As usually defined, the IC50 is the concentration that gives 50% inhibition. By ED50 is commonly meant the dose that gives a 50% effect, or the effect in half of the subjects.

For `Cc1ccc(C2CCN(CCCCNC(=O)c3ccc(-c4ccc(C#N)cc4)cc3)CC2)c(OP(=O)(O)O)c1`, the melting point came out at 70 °C.

Compound `CCOP(=O)(OCC)Oc1cc(CC)ccc1C1CCN(CCCCNC(=O)c2ccc(NC(=O)c3ccc(Cl)cc3)cc2)CC1` registered a melting point of 158 to 160 °C. `Cc1ccc(C2CCN(CCCCNC(=O)c3ccc(NC(=O)c4ccc(Cl)cc4)cc3)CC2)c(O)c1.Cl` [Example 1, 4-(4-chloro-benzoylamino)-N-{4-[4-(5-methyl-2-piperidinyl-phenol)]-butyl}-benzamide Hydrochloride]: in the data set with LDL-r promoter, the IC50 was determined as 30 nM. Further, the “In vivo (ED50)” value in the data set with fat-fed hamsters (hamster, in vivo, po) was in the range of 10 to 15 mg/kg. `CC(=O)Oc1cc(C)ccc1C1CCN(CCCCNC(=O)c2ccc(NC(=O)c3ccc(Cl)cc3)cc2)CC1` [Example 2, Acetic Acid 2-(1-{4-[4-(4-chloro-benzoylamino)-benzoylamino]-butyl}-piperidin-4-yl)-5-methyl-phenyl Ester] displayed a melting point of 210 °C. Moreover, the 50% effective dose (ED50) with fat-fed hamsters was 5 mg/kg.

The compound `CCOP(=O)(OCC)Oc1cc(C)ccc1C1CCN(CCCCNC(=O)c2ccc(NC(=O)c3ccc(Cl)cc3)cc2)CC1` [Example 3, Phosphoric Acid 2-(1-{4-[4-(4-chloro-benzoylamino)-benzoylamino]-butyl}-piperidin-4-yl)-5-methyl-phenyl Ester Diethyl Ester] registered a melting point of 230 °C. Besides, the concentration for half-maximal inhibition (IC50) with LDL-r promoter (Homo sapiens, HepG2 cells with LDL-r promoter-luciferase construct, 24 hours incubation, induction of luciferase activity) amounted to 30 nM. Moreover, in the data set with fat-fed hamsters, the 50% effective dose (ED50) stood at 5 mg/kg. Turning to `CCc1ccc(C2CCN(CCCCNC(=O)c3ccc(NC(=O)c4ccc(Cl)cc4)cc3)CC2)c(OC(C)=O)c1` [Example 5, Acetic Acid 2-(1-{4-[4-(4-chloro-benzoylamino)-benzoylamino]-butyl}-piperidin-4-yl)-5-ethyl-phenyl Ester], the melting point was 192 to 194 °C. On the same count and under the same terms, as for `CCc1ccc(C2CCN(CCCCNC(=O)c3ccc(-c4ccc(C#N)cc4)cc3)CC2)c(O)c1` [Example 6, 4′-Cyano-biphenyl-4-carboxylic Acid {4-[4-(2-hydroxy-4-ethyl-phenyl)-piperidin-1-yl]-butyl}-amide], the figure is 252 °C. With `Cc1ccc(C2CCN(CCCCNC(=O)c3ccc(-c4ccc(C#N)cc4)cc3)CC2)c(O)c1` [Example 20, 4′-Cyano-biphenyl-4-carboxylic Acid {4-[4-(2-hydroxy-4-methyl-phenyl)-piperidin-1-yl]-butyl}-amide], the melting point is 184 °C. Still for that read-out and setting: as for `CC(=O)Oc1cc(C)ccc1C1CCN(CCCCNC(=O)c2ccc(-c3ccc(C#N)cc3)cc2)CC1` [Example 21, Acetic Acid 2-(1-{4-[(4′-cyano-biphenyl-4-carbonyl)-amino]-butyl}-piperidin-4-yl)-5-methyl-phenyl Ester], the figure is 128 to 130 °C.
